# Assays:
# Format in all cases: cell-based, human
# [1] = system: Mel Im cells; assay: FACS analysis of apoptosis (Annexin / propidium iodide)
# Description: (§1) FIGS. 4A through 4H depict that small Molecule KRAS Inhibition Reduces Proliferation and Induces Apoptosis in Melanoma. FIGS. 4A and 4B show proliferation (slope of cell index) of Mel Juso (FIG. 4A) and Mel Im (FIG. 4B) cells treated with DMSO and different concentrations of the KRAS small molecule inhibitor Deltarasin (DR). The cell index as dimensionless parameter for cell proliferative ability was used to determine the half maximal inhibitory concentration (IC50, small graphs) of DR. […] FIG. 4D illustrates exemplary images of different melanoma cell lines (Mel Im, Mel Juso and Mel Ei) treated with 5 μM DR or 5 μM DMSO, respectively, for 24 hours. FIGS. 4E and 4F show images of fibroblast cell lines derived from two different donors (F1, F2) and melanocytes (NHEM) treated DR (20 μM, 48 hours) or DMSO (FIG. 4E), and lactate dehydrogenase (LDH) quantification (FIG. 4F) in cell supernatants (optic density, OD) of NHEM after treatment with low dose DMSO, DR (5 μM), and DR (10 μM), respectively.
# (§2) FIGS. 5A through 5D show time-dependent measurement of colony diameters (exemplary data in top panels) in three-dimensional, anchorage-independent “colony-forming” assays (FIGS. 5A and 5B: Mel Im, FIGS. 5C and 5D: Mel Juso). Exemplary Images (middle) and corresponding quantification of colony diameters (bottom panels, summarized data of n=3 experiments at day 19 after seeding) are also depicted. Treatments were performed in four different groups (10 μM DMSO, 5 μM Deltarasin=DR, M PLX-4032=PLX (vemurafenib), or combination of 10 μM PLX+[…]). Effects on i) colony formation (FIGS. 5A and 5C, treatment at day 1) and ii) proliferation of pre-formed colonies (FIGS. 5B and 5D, treatment at day 7 and 13) were analyzed. […] FIG. 5F show images of PLX-primary resistant Mel Juso cells treated with DMSO, DR (5 μM), high dose PLX (20 μM) and a combination of 5 μM DR+10 μM PLX for 24 hours. […] Cells were treated for 5 hours with DMSO, 5 μM Deltarasin (DR), 10 μM PLX, or a combination of 10 μM PLX and 5 μM DR. According to exemplary images for Annexin and propidium iodide (PI) staining are depicted for Mel Im. (FIG. 5H) Mel Im and Mel Juso were transfected with control si-RNA (si-CTR) or with si-KRAS (si-KR). Two subgroups (blue and red) were additionally treated with 10 μM PLX (Vemurafenib) for 24 hours, with subsequent flow cytometric quantification of tumor cell apoptosis according to FIG. 5G. Exemplary images for Annexin and propidium iodide (PI) staining are depicted for Mel Im.
# [2] = system: Mel Juso cells; assay: as above
# Description: as §1, §2
# [3] = system: Htz19 melanoma cells; assay: FACS analysis of apoptosis; conditions: PLX 24 hours, alone or combined with RNAi-mediated KRAS knockdown
# [4] = system: Mel Im cells; assay: long-term treatment, emergence of surviving tumor cells and drug resistance; conditions: 21 days, PLX increasing doses up to 20 μM, or 10 μM PLX + 5 μM DR
# Description: as §1
# FIGS. 6A through 6H depict that KRASi Prevents Emergence of Resistance and KRAS Expression is Regulated Dynamically in Acquired Resistance to BRAFi. […] Asterisks indicate significant differences (p<0.05) as compared to according control (0 μM PLX). […] Densitometric values (DM) are also shown, representing relative quantifications. […]
# [5] = system: Mel Juso cells; assay: three-dimensional, anchorage-independent colony-forming assay; conditions: Mel Juso (BRAFi primary resistant); DR 5 μM, PLX 10 μM, alone or combined
# Description: FIGS. 5A through 5D show time-dependent measurement of colony diameters (exemplary data in top panels) in three-dimensional, anchorage-independent “colony-forming” assays (FIGS. 5A and 5B: Mel Im, FIGS. 5C and 5D: Mel Juso). Exemplary Images (middle) and corresponding quantification of colony diameters (bottom panels, summarized data of n=3 experiments at day 19 after seeding) are also depicted. […] Effects on i) colony formation (FIGS. 5A and 5C, treatment at day 1) and ii) proliferation of pre-formed colonies (FIGS. 5B and 5D, treatment at day 7 and 13) were analyzed. […] Cells were treated for 5 hours with DMSO, 5 μM Deltarasin (DR), 10 μM PLX, or a combination of 10 μM PLX and 5 μM DR. […] (FIG. 5H) Mel Im and Mel Juso were transfected with control si-RNA (si-CTR) or with si-KRAS (si-KR). Two subgroups (blue and red) were additionally treated with 10 μM PLX (Vemurafenib) for 24 hours, with subsequent flow cytometric quantification of tumor cell apoptosis according to FIG. 5G.
# [6] = system: Mel Juso cells; assay: ERK-activation in BRAFi primary resistant cells; conditions: PLX
# [7] = system: SkMel28-wt; assay: cell proliferation (slope of cell index); conditions: 10 μM PLX vs DMSO
# Experimental: (§3) FIGS. 6A through 6H depict that KRASi Prevents Emergence of Resistance and KRAS Expression is Regulated Dynamically in Acquired Resistance to BRAFi. […] Asterisks indicate significant differences (p<0.05) as compared to according control (0 μM PLX). FIGS. 6E and 6F are exemplary Western blot images (FIG. 6E) depicting immunostaining of AKT, pAKT, ERK, pERK, and KRAS. Densitometric values (DM) are also shown, representing relative quantifications. Resistant cell lines 451Lu-R and SkMel28-R were treated with 0, 5, or 10 μM PLX for 8 hours, and according summarized quantification of KRAS protein expression (n=3, FIG. 6F).
# [8] = system: 451Lu-wt; assay: cell proliferation (slope of cell index); conditions: 10 μM PLX vs DMSO
# [9] = system: resistant cell clones (SkMel28-R, 451Lu-R); assay: real-time cell proliferation of BRAFi-resistant melanoma cells; conditions: both resistant cell clones; 10 μM PLX vs DMSO
# Experimental: as §3
# FIGS. 7A through 7I present KRAS Inhibition Re-sensitizes BRAF Inhibitor Resistant Cells for Inhibition of Proliferation and Induction of Apoptosis. […] show real-time cell proliferation (exemplary proliferation curve depicted in FIG. 6A, summarized slopes of proliferation curves depicted in FIG. 6B) of PLX-resistant cells treated with si-KRAS (KR) or control si-RNA (CTR), respectively, in combination with 5 or 10 μM PLX. FIGS. 7C and 7D show real-time cell proliferation (exemplary proliferation curve depicted in […], summarized slopes of proliferation curves depicted in FIG. 7D) of PLX-resistant cells treated with Deltarasin (DR) or DMSO, respectively, in combination with 5 or 10 μM PLX, according to FIGS. 7A and 7B. […]
# [10] = system: KRAS mRNA in SkMel28-R and 451Lu-R cells; assay: qRT-PCR of KRAS mRNA expression after PLX treatment; conditions: resistant and some non-resistant melanoma cell clones; 24-hour and 48-hour PLX treatment
# Experimental: as §3
# [11] = system: resistant cell lines 451Lu-R and SkMel28-R; assay: Western blot of AKT, pAKT, ERK, pERK and KRAS
# Experimental: as §3
# After 48 hours of transfection with either control si-RNA (CTR) or si-KRAS (KR), cells were treated with different concentrations of PLX (0-10 μM). Data are represented as mean±SD in FIGS. 6A-6G and as mean±SEM in FIG. 6H. Ns: non-significant. *: p<0.05.
# [12] = 10 μM PLX 24 hours, alone (si-CTR) or combined with RNAi-mediated KRAS knockdown
# [13] = 5 hours, 5 μM DR, 10 μM PLX or combination
compound,measurement,setting,value
CCCS(=O)(=O)Nc1ccc(F)c(C(=O)c2c[nH]c3ncc(-c4ccc(Cl)cc4)cc23)c1F [PLX],apoptosis (FACS),[1]; [12],slightly enhanced apoptosis
same,"apoptosis (FACS), short treatment",[1]; [13],insufficient to induce apoptosis
same,apoptosis (FACS),[2]; [12],did not cause apoptosis
same,"apoptosis (FACS), short treatment",[2]; [13],insufficient to induce apoptosis
same,apoptosis (FACS),[3],slightly enhanced apoptosis
same,emergence of surviving tumor cells (acquired resistance),[4],survival of a moderate proportion of tumor cells
same,three-dimensional colony formation and colony proliferation,[5],enhanced
same,ERK-activation,[6],enhanced
same,cell proliferation,[7],inhibited proliferation
same,cell proliferation,[8],inhibited proliferation
same,cell proliferation,[9],enhanced
same,KRAS mRNA expression (qRT-PCR),[10],dose-dependent slight dynamic alteration
same,ERK activation (pERK),"[11]; PLX 0, 5 or 10 μM",increased ERK activation
same,activation of AKT (pAKT/AKT),[11]; PLX doses,dose-dependently increased
same,KRAS protein expression (Western blot),"[11]; eight hours, 0, 5 or 10 μM PLX",dose-dependently enhanced

# Reference: patent US20200147058A1, “KRAS INHIBITOR FOR USE IN TREATING CANCER” (Friedrich-Alexander-Universitat Erlangen-Numberg, priority 2016, published 2020)
